Test results: ChEMBL document CHEMBL5608250, “Quinolinonyl Derivatives as Dual Inhibitors of the HIV-1 Integrase Catalytic Site and Integrase-RNA interactions” (ACS Med Chem Lett, 2024)
Activity calls are given as the source filed them. No cut-off for these calls is given here.

Experiments:
[1] = molecular target: T1, Human immunodeficiency virus type 1 integrase (Human immunodeficiency virus 1, UniProt Q7ZJM1); test: Inhibition of HIV-1 integrase catalytic activity incubated for 1 hrs in absence of LEDGF/p75 by HTRF assay
T1 sequence (Q7ZJM1 whole entry): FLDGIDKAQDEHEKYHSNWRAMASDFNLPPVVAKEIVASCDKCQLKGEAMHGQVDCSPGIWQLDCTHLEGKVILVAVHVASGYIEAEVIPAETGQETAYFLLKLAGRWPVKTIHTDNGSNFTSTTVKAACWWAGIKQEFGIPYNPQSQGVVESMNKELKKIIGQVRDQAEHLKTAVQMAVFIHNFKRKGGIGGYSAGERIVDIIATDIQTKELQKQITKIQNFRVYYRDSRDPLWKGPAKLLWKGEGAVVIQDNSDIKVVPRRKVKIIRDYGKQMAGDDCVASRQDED

[2] = molecular target: Human immunodeficiency virus type 1 integrase (Human immunodeficiency virus 1) (UniProt Q7ZJM1); test: (§1) Inhibition of HIV1 integrase activity by measuring multimerization of His-tagged integrase/FLAG-tagged integrase incubated for 3 hrs by […] HTRF assay
Chain of Human immunodeficiency virus type 1 integrase (Human immunodeficiency virus 1) (Q7ZJM1 as listed by the source): as the sequence (Q7ZJM1 whole entry) above

[3] = Inhibition of His-tagged HIV-1 integrase/FLAG-tagged LEDGF (unknown origin) protein-protein interaction preincubated with integrase for 30 mins followed by LEDGF/p75 addition and measured after overnight incubation by HTRF assay
[4] = (§2) Inhibition of 6His-tagged recombinant HIV-1 integrase/biotinylated HIV-1 transactivation response element RNA interaction assessed as […] preincubated with integrase for 2 hrs followed by RNA addition and measured after 1 hrs by ALPHAscreen based AlphaLISA; parameters: species or system Human immunodeficiency virus 1
[5] = molecular target: T1, Human immunodeficiency virus type 1 integrase; test: as §1
[6] = test system: Human immunodeficiency virus 1; test: as §2; conditions: time 3.0 hrs
[7] = test system: Human immunodeficiency virus 1; test: (§3) Antiviral activity against VSV-G pseudotyped HIV-1 NL4.3 (isolated from HEK293T cells viral stock supernatant) infected in human MT4 cells assessed as inhibition of early stage viral replication preincubated for 3 to 4 hrs in presence of polybrene followed by fresh media replacement with compound and measured after 48 hrs by flow cytometric analysis; format: functional, organism-based; conditions: Human immunodeficiency virus 1, NL4.3, MT4
[8] = test system: Human immunodeficiency virus 1; test: as §3, with “from compound pretreated” for “from”, “late” for “early”; format: functional, organism-based; conditions: time 51-52 hrs
[9] = test system: Human immunodeficiency virus 1; test: as §3, with “analysis relative to control” for “analysis”; format: functional; conditions: time 51-52 hrs
[10] = test system: Human immunodeficiency virus 1; test: Antiviral activity against VSV-G pseudotyped HIV-1 NL4.3 (isolated from compound pretreated HEK293T cells viral stock supernatant) infected in human MT4 cells assessed as inhibition of late stage viral replication at 25 microM preincubated for 3 to 4 hrs in presence of polybrene followed by fresh media replacement with compound and measured after 48 hrs by flow cytometric analysis relative to …; format: functional; conditions: Human immunodeficiency virus 1, NL4.3, MT4, time 51-52 hrs

Row | Structure (SMILES) | IC50 [1] [nM] | inhibition [2] | inhibition [3] | IC50 [4] [nM] | EC50 [5] [nM] | inhibition [6] | EC50 [7] [nM] | Activity [8] | inhibition (INH) [9] [%] | inhibition at 25 µM [10] [%]
1 | CCOC(=O)/C(O)=C/C(=O)c1ccc2[nH]cc(C(=O)/C=C(\O)C(=O)OCC)c(=O)c2c1 | 2340 | Active | Active | 2220 | – | – | – | – | – | –
2 | O=C(O)/C(O)=C/C(=O)c1cn(Cc2ccc(F)cc2)c2ccc(C(=O)c3ccc(C(=O)O)cc3)cc2c1=O | 77 | Active | inactive | 1570 | – | – | – | – | – | –
3 | O=C(O)c1cn(Cc2ccc(F)cc2)c2ccc(OCc3cccc4ccccc34)cc2c1=O | 36500 | – | inactive | – | > 200000 | Active | – | – | – | –
4 | O=C(O)c1cn(Cc2ccc(F)cc2)c2ccc(OCc3ccc(OCc4ccccc4)cc3)cc2c1=O | 6280 | – | inactive | – | > 2000 | Active | – | – | – | –
5 | CCOC(=O)/C(O)=C/C(=O)c1cn(Cc2ccc(F)cc2)c2ccc(C(=O)c3ccc(C(=O)OCC)cc3)cc2c1=O | 741 | Active | inactive | – | – | Active | – | – | – | –
6 | CCOC(=O)/C(O)=C/C(=O)c1cc2c(=O)c(C(=O)/C=C(\O)C(=O)OCC)cn(Cc3ccc(F)cc3)c2cc1N1CCN(C)CC1 | 782 | Active | inactive | 4190 | – | – | – | – | – | –
7 | CCOC(=O)c1cn(Cc2ccc(F)cc2)c2ccc(OCc3ccc(OCc4ccccc4)cc3)cc2c1=O | > 200000 | Active | inactive | – | – | Active | – | – | – | –
8 | CCOC(=O)/C(O)=C/C(=O)c1cc2c(=O)c(C(=O)/C=C(\O)C(=O)OCC)cn(Cc3ccc(F)cc3)c2cc1N(C)C | 480 | – | inactive | 1040 | > 200000 | – | > 6250 | inactive | 50 | –
9 | O=C(O)c1cn(Cc2ccc(F)cc2)c2ccc(OCc3ccc(F)cc3)cc2c1=O | > 200000 | inactive | inactive | – | – | Active | – | – | – | –
10 | CN(C)c1cc2c(cc1C(=O)/C=C(\O)C(=O)O)c(=O)c(C(=O)/C=C(\O)C(=O)O)cn2Cc1ccc(F)cc1 | 181 | Active | inactive | 750 | – | – | > 6250 | inactive | 38 | –
11 | O=C(O)/C(O)=C/C(=O)c1ccc2[nH]cc(C(=O)/C=C(\O)C(=O)O)c(=O)c2c1 | 3140 | Active | Active | 1330 | – | – | – | – | – | –
12 | O=C(O)c1cn(Cc2ccc(F)cc2)c2ccc(Oc3ccccc3)cc2c1=O | > 200000 | Active | inactive | – | – | Active | – | – | – | –
13 | O=C(O)/C(O)=C/C(=O)c1ccc2c(c1)c(=O)c(C(=O)/C=C(\O)C(=O)O)cn2Cc1ccc(F)cc1 | – | Active | Active | 840 | – | – | 2270 | – | – | 40
14 | CCOC(=O)/C(O)=C/C(=O)c1ccc2c(c1)c(=O)c(C(=O)/C=C(\O)C(=O)OCC)cn2Cc1ccc(F)cc1 | 800 | Active | inactive | 1980 | – | – | – | – | – | –
15 | CCOC(=O)c1cn(Cc2ccc(F)cc2)c2ccc(OCc3cccc4ccccc34)cc2c1=O | 41900 | – | inactive | – | > 200000 | Active | – | – | – | –
